Assay results: US20180133211A1, “METHODS AND MATERIALS FOR PROMOTING BONE FORMATION” (Mayo Foundation for Medical Education and Research, priority 2015, published 2018)

Key:
[1] = test system: sham operated or ovariectomized (OVX) mice; experiment: Quantitative backscattered electron imaging (qBEI) of bone mineralization, SFN in vivo; parameters: species or system mouse; settings: two-way ANOVA
Method: (§1) Analysis of SFN on mice was performed using a protocol similar to that described elsewhere (Kong et al., Arthritis Rheum., 62:159-170 (2010)). In the experimental setting herein, eight week old sham operated or ovariectomized (OVX) C57B16/J female mice were purchased from Charles River laboratories. Mice were injected with 7.5 mM DL-SFN (200 μL of SFN at a concentration of 63.8 mg/mL/kg dissolved in ethanol and further diluted in PBS) intraperitoneally every other day for five weeks. Control mice received vehicle alone.
Un-decalcified distal femora from 13 weeks old mice, sham/Crt (n=5), sham/DL-SFN (n=5), OVX/ctrl (n=4) and OVX/DL-SFN (n=5), were fixed and dehydrated in alcohol, embedded in polymethylmethacrylate (PMMA), and prepared for backscattered electron imaging as previously described. qBEI is based on backscattering of electrons from the surface-layer (i.e., the initial ˜1.5 micron) of a bone section. The rate of these backscattered electrons is proportional to the weight concentration of mineral (hydroxyapatite), and thus of that of calcium in bone. Details of the method were described elsewhere (Roschger et al., Bone, 42:456-466 (2008)). A scanning electron microscope (DSM 962, Zeiss, Oberkochen, Germany) equipped with a four quadrant semiconductor backscattered electron detector was used. […]

[2] = Tolerability of DL-SFN injections in mice; assay type: in vivo, mouse; settings: 7.5 mM DL-SFN, 200 μL intraperitoneally every other day for five weeks
Method: as §1

[3] = test system: Runx2 protein in MC3T3-E1 cells; experiment: Runx2 immunoblotting; assay type: cell-based, mouse; settings: MC3T3-E1, 3 μM, after both 24 hours and 14 days
Method: Whole cell protein extracts were prepared using SDS sample buffer (2% SDS, 100 mM β-mercaptoethanol and 125 mM Tris-HCl, pH=6.8) and heated at 95° C. for 5 minutes. To obtain supernatant protein extracts, cell medium was collected, and proteins were precipitated with 50% trichloroacetic acid at 4° C. for 1 hour, concentrated by centrifugation, neutralized with PBS, and dissolved in SDS sample buffer.
For immunoblotting analysis, 15 μg of protein extracts were separated on 10% SDS poly-acryl amide gels, transferred to nitrocellulose membranes (Millipore), and blocked overnight with 10% blocking reagent (Roche) in TN buffer (50 mM Tris and 125 mM NaCl, pH=8.0). The following primary antibodies were used: rabbit, anti-Runx2 (sc-10758, Santa Cruz Biotechnologies, Santa Cruz, Calif.) and rabbit, anti-β-Actin (#4967, Cell Signaling, Danvers, Mass., USA). Washing was performed with TN buffer containing 0.01% Tween. Binding of the secondary antibody (anti-rabbit IgG/anti-mouse IgG horseradish peroxidase-coupled) (Roche) diluted 1:10,000 in 10% blocking solution followed by detection with the BM chemo-luminescence immunoblotting kit (Roche) was carried out as described by the supplier. Chemo-luminescence was measured with an image acquisition system (Vilber Lourmat, Marne-la-Vallée, France). Measurements are given as means of 3 immuno-blots, and representative blots are shown.

[4] = test system: sham operated or ovariectomized (OVX) C57B16/J female mice; experiment: In vivo analysis of SFN effects on bone, μCT; parameters: species or system mouse; settings: sham-operated mice
Method: as §1
Images from tibias fixed in 4% formaldehyde were acquired in a SkyScan 1174 with a resolution of 6 μm (X-ray voltage 50 kV). Image reconstruction was performed by applying a modified Feldkamp algorithm using the Skyscan Nrecon software. 3D and 2D morphometric parameters were calculated for the trabecular bone (350 consecutive slides, 6 μm thick) starting from 300 μm from the growth plate. Threshold values were applied for segmenting trabecular bone corresponding to bone mineral density values of 0.6/cm^3 calcium hydroxyapatite. 3D parameters were based on analysis of a Marching Cubes type model with a rendered surface. Calculation all of 2D areas and perimeters was based on the Pratt algorithm (Pratt et al., IEEE Trans. Biomed. Eng., 38, 306-309 (1991). Bone structural variables and nomenclature were used according to Bouxsein et al. (J. Bone Miner. Res., 25:1468-1486 (2010)).

## C[S+]([O-])CCCCN=C=S (racemic) [DL-SFN]
[1]
  CaPeak and CaWidth of trabecular bone (qBEI): no effects
[2]
  apparent adverse effects (weight loss, physical appearance, behavior): did not show apparent adverse effects
[3]
  Runx2 protein expression: significant increase
[4]; DL-SFN IP every other day for five weeks
  femoral metaphyseal cancellous bone volume per tissue volume (BV/TV): significantly higher
[4]; DL-SFN for five weeks
  trabecular number (Tb.N): significantly higher
  trabecular separation (Tb.Sp.): decreasing
  trabecular thickness (Tb.Th.): not affecting
